Structures can show the parent of a compound that is named as a salt. Where two headings read alike, the source gives them in different places.
Assays:
Experiment in all cases: AK assay 384-well format, Prestwick library screening
P. aeruginosa = assay type: cell-based, Pseudomonas aeruginosa; conditions: 50 μM final drug concentration; for fold induction at 50 µM: Pseudomonas aeruginosa, 3 h
[1] = test system: S. aureus strain USA300-0114; assay type: cell-based, Staphylococcus aureus; conditions: 50 μM final drug concentration; for fold induction at 50 µM: Staphylococcus aureus, USA300, 3 h
K. pneumoniae = assay type: cell-based, Klebsiella pneumoniae; conditions: 50 μM final drug concentration; for fold induction at 50 µM: Klebsiella pneumoniae, 3 h
[2] = test system: A. baumannii strain 98-37-09; assay type: cell-based, Acinetobacter baumannii; conditions: 50 μM final drug concentration; for fold induction at 50 µM: Acinetobacter baumannii, 983709, 3 h
E. faecium = assay type: cell-based, Enterococcus faecium; conditions: 50 μM final drug concentration; for fold induction at 50 µM: Enterococcus faecium, 3 h
E. coli = assay type: cell-based, Escherichia coli; conditions: 50 μM final drug concentration; for fold induction at 50 µM: Escherichia coli, 3 h
E. cloacae = assay type: cell-based, Enterobacter cloacae; conditions: 50 μM final drug concentration; for fold induction at 50 µM: Enterobacter cloacae, 3 h
[3] = planktonic P. aeruginosa, 384-well, cutoff for positive-scoring molecules 3-fold increase, read-out: AK-based Prestwick Library Screening Results: P. aeruginosa (increase in extracellular AK activity)
[4] = planktonic S. aureus, 384-well, cutoff for positive-scoring molecules 3-fold increase, read-out: AK-based Prestwick Library Screening Results: S. aureus (increase in extracellular AK activity)
[5] = planktonic K. pneumoniae, 384-well, cutoff for positive-scoring molecules 3-fold increase, read-out: AK-based Prestwick Library Screening Results: K. pneumoniae (increase in extracellular AK activity)
[6] = planktonic A. baumannii, 384-well, cutoff for positive-scoring molecules 3-fold increase, read-out: AK-based Prestwick Library Screening Results: A. baumannii (increase in extracellular AK activity)
[7] = planktonic E. faecium, 384-well, cutoff for positive-scoring molecules 3-fold increase, read-out: AK-based Prestwick Library Screening Results: E. faecium (increase in extracellular AK activity)
[8] = planktonic E. coli, 384-well, cutoff for positive-scoring molecules 3-fold increase, read-out: AK-based Prestwick Library Screening Results: E. coli (increase in extracellular AK activity)
[9] = planktonic E. cloacae, 384-well, cutoff for positive-scoring molecules 3-fold increase, read-out: AK-based Prestwick Library Screening Results: E. cloacae (increase in extracellular AK activity)
[10] = planktonic P. aeruginosa, cutoff for positive-scoring molecules 3-fold increase, read-out: AK-based Prestwick Library Screening Results, P. aeruginosa (increase in extracellular AK activity)
[11] = planktonic S. aureus, cutoff for positive-scoring molecules 3-fold increase, read-out: AK-based Prestwick Library Screening Results, S. aureus (increase in extracellular AK activity)
[12] = planktonic K. pneumoniae, cutoff for positive-scoring molecules 3-fold increase, read-out: AK-based Prestwick Library Screening Results, K. pneumoniae (increase in extracellular AK activity)
[13] = planktonic A. baumannii, cutoff for positive-scoring molecules 3-fold increase, read-out: AK-based Prestwick Library Screening Results, A. baumannii (increase in extracellular AK activity)
[14] = planktonic E. faecium, cutoff for positive-scoring molecules 3-fold increase, read-out: AK-based Prestwick Library Screening Results, E. faecium (increase in extracellular AK activity)
[15] = planktonic E. coli, cutoff for positive-scoring molecules 3-fold increase, read-out: AK-based Prestwick Library Screening Results, E. coli (increase in extracellular AK activity)
[16] = planktonic E. cloacae, cutoff for positive-scoring molecules 3-fold increase, read-out: AK-based Prestwick Library Screening Results, E. cloacae (increase in extracellular AK activity)

Compound: [H]/N=C(/N)N[C@H]1[C@H](O)[C@@H](O)[C@H](O[C@@H]2O[C@@H](C)[C@](O)(C=O)[C@H]2O[C@@H]2O[C@@H](CO)[C@H](O)[C@@H](O)[C@@H]2NC)[C@@H](N/C(N)=N\[H])[C@@H]1O [Streptomycin sulfate]
- fold induction at 50 µM (P. aeruginosa; [3]): 0.4
- fold induction at 50 µM [1, 4]: 0.4
- fold induction at 50 µM (K. pneumoniae; [5]): 0.3
- fold induction at 50 µM [2, 6]: 0.4
- fold induction at 50 µM (E. faecium; [7]): 0.9
- fold induction at 50 µM (E. coli; [8]): 0.5
- fold induction at 50 µM (E. cloacae; [9]): 0.3

Compound: COC(=O)[C@H]1[C@H]2C[C@H]3c4[nH]c5ccccc5c4CCN3C[C@H]2CC[C@@H]1O [Rauwolscine hydrochloride]
- fold induction at 50 µM (P. aeruginosa; [10]): 0.6
- fold induction at 50 µM [1, 11]: 0.7
- fold induction at 50 µM (K. pneumoniae; [12]): 0.6
- fold induction at 50 µM [2, 13]: 0.8
- fold induction at 50 µM (E. faecium; [14]): 1
- fold induction at 50 µM (E. coli; [15]): 0.7
- fold induction at 50 µM (E. cloacae; [16]): 0.8

Compound: CC(C)(C)C(=O)OCOC(=O)[C@@H]1N2C(=O)[C@@H](/N=C/N3CCCCCC3)[C@H]2SC1(C)C [Pivmecillinam hydrochloride]
- fold induction at 50 µM (P. aeruginosa; cutoff for positive-scoring molecules 3-fold increase, read-out: AK-based Prestwick Library Screening Results, P. aeruginosa (fold increase in extracellular AK activity)): 0.6
- fold induction at 50 µM ([1]; cutoff for positive-scoring molecules 3-fold increase, read-out: AK-based Prestwick Library Screening Results, S. aureus (fold increase in extracellular AK activity)): 0.6
- fold induction at 50 µM (K. pneumoniae; cutoff for positive-scoring molecules 3-fold increase, read-out: AK-based Prestwick Library Screening Results, K. pneumoniae (fold increase in extracellular AK activity)): 0.5
- fold induction at 50 µM ([2]; cutoff for positive-scoring molecules 3-fold increase, read-out: AK-based Prestwick Library Screening Results, A. baumannii (fold increase in extracellular AK activity)): 1.1
- fold induction at 50 µM (E. faecium; cutoff for positive-scoring molecules 3-fold increase, read-out: AK-based Prestwick Library Screening Results, E. faecium (fold increase in extracellular AK activity)): 0.9
- fold induction at 50 µM (E. coli; cutoff for positive-scoring molecules 3-fold increase, read-out: AK-based Prestwick Library Screening Results, E. coli (fold increase in extracellular AK activity)): 7.7
- fold induction at 50 µM (E. cloacae; cutoff for positive-scoring molecules 3-fold increase, read-out: AK-based Prestwick Library Screening Results, E. cloacae (fold increase in extracellular AK activity)): 0.8

Compound: CC(=O)N(O)CCCCCNC(=O)CCC(=O)N(O)CCCCCNC(=O)CCC(=O)N(O)CCCCCN [Deferoxamine mesylate]
- fold induction at 50 µM (P. aeruginosa; planktonic, cutoff for positive 3-fold increase, read-out: AK-based Prestwick Library Screening Results, P. aeruginosa (fold increase in extracellular AK activity)): 0.4
- fold induction at 50 µM ([1]; planktonic, cutoff for positive 3-fold increase, read-out: AK-based Prestwick Library Screening Results, S. aureus (fold increase in extracellular AK activity)): 0.4
- fold induction at 50 µM (K. pneumoniae; planktonic, cutoff for positive 3-fold increase, read-out: AK-based Prestwick Library Screening Results, K. pneumoniae (fold increase in extracellular AK activity)): 0.5
- fold induction at 50 µM ([2]; planktonic, cutoff for positive 3-fold increase, read-out: AK-based Prestwick Library Screening Results, A. baumannii (fold increase in extracellular AK activity)): 0.4
- fold induction at 50 µM (E. faecium; planktonic, cutoff for positive 3-fold increase, read-out: AK-based Prestwick Library Screening Results, E. faecium (fold increase in extracellular AK activity)): 0.9
- fold induction at 50 µM (E. coli; planktonic, cutoff for positive 3-fold increase, read-out: AK-based Prestwick Library Screening Results, E. coli (fold increase in extracellular AK activity)): 0.4
- fold induction at 50 µM (E. cloacae; planktonic, cutoff for positive 3-fold increase, read-out: AK-based Prestwick Library Screening Results, E. cloacae (fold increase in extracellular AK activity)): 0.4

Compound: COc1cccc2c1C(=O)c1c(O)c3c(c(O)c1C2=O)C[C@@](O)(C(=O)CO)C[C@@H]3O[C@H]1C[C@H](N)[C@H](O)[C@H](C)O1 [Doxorubicin hydrochloride]
- fold induction at 50 µM (P. aeruginosa; [10]): 0.6
- fold induction at 50 µM [1, 11]: 0.9
- fold induction at 50 µM (K. pneumoniae; [12]): 0.7
- fold induction at 50 µM [2, 13]: 1
- fold induction at 50 µM (E. faecium; [14]): 1.7
- fold induction at 50 µM (E. coli; [15]): 1
- fold induction at 50 µM (E. cloacae; [16]): 1.2

Compound: CC(C)OC(=O)C(C)(C)Oc1ccc(C(=O)c2ccc(Cl)cc2)cc1 [Fenofibrate]
- fold induction at 50 µM (P. aeruginosa; 384-well format, cutoff for positive-scoring molecules 3-fold increase, read-out: AK-based Prestwick Library Screening Results, P. aeruginosa (increase in extracellular AK activity)): 0.8
- fold induction at 50 µM ([1]; 384-well format, cutoff for positive-scoring molecules 3-fold increase, read-out: AK-based Prestwick Library Screening Results, S. aureus (increase in extracellular AK activity)): 0.8
- fold induction at 50 µM (K. pneumoniae; 384-well format, cutoff for positive-scoring molecules 3-fold increase, read-out: AK-based Prestwick Library Screening Results, K. pneumoniae (increase in extracellular AK activity)): 0.6
- fold induction at 50 µM ([2]; 384-well format, cutoff for positive-scoring molecules 3-fold increase, read-out: AK-based Prestwick Library Screening Results, A. baumannii (increase in extracellular AK activity)): 0.7
- fold induction at 50 µM (E. faecium; 384-well format, cutoff for positive-scoring molecules 3-fold increase, read-out: AK-based Prestwick Library Screening Results, E. faecium (increase in extracellular AK activity)): 0.8
- fold induction at 50 µM (E. coli; 384-well format, cutoff for positive-scoring molecules 3-fold increase, read-out: AK-based Prestwick Library Screening Results, E. coli (increase in extracellular AK activity)): 0.8
- fold induction at 50 µM (E. cloacae; 384-well format, cutoff for positive-scoring molecules 3-fold increase, read-out: AK-based Prestwick Library Screening Results, E. cloacae (increase in extracellular AK activity)): 1.2

Compound: Cc1c(Cl)cccc1Nc1ccccc1C(=O)O [Tolfenamic acid]
- fold induction at 50 µM (P. aeruginosa; [3]): 1.2
- fold induction at 50 µM [1, 4]: 0.5
- fold induction at 50 µM (K. pneumoniae; [5]): 0.8
- fold induction at 50 µM [2, 6]: 1.4
- fold induction at 50 µM (E. faecium; [7]): 1.1
- fold induction at 50 µM (E. coli; [8]): 1
- fold induction at 50 µM (E. cloacae; [9]): 1.6

Compound: C[C@H]1O[C@@H](O[C@H]2CC[C@]3(C=O)[C@H]4CC[C@]5(C)[C@@H](C6=CC(=O)OC6)CC[C@]5(O)[C@@H]4CC[C@]3(O)C2)C[C@H](O)[C@@H]1O [Helveticoside]
- AK-based Prestwick Library Screening Results, P. aeruginosa (fold increase in extracellular AK activity) (P. aeruginosa; planktonic, […]): 0.4
- AK-based Prestwick Library Screening Results, S. aureus (fold increase in extracellular AK activity) ([1]; planktonic, […]): 0.4
- AK-based Prestwick Library Screening Results, K. pneumoniae (fold increase in extracellular AK activity) (K. pneumoniae; planktonic, […]): 0.5
- AK-based Prestwick Library Screening Results, A. baumannii (fold increase in extracellular AK activity) ([2]; planktonic, […]): 0.4
- AK-based Prestwick Library Screening Results, E. faecium (fold increase in extracellular AK activity) (E. faecium; planktonic, […]): 0.9
- AK-based Prestwick Library Screening Results, E. coli (fold increase in extracellular AK activity) (E. coli; planktonic, […]): 0.5
- AK-based Prestwick Library Screening Results, E. cloacae (fold increase in extracellular AK activity) (E. cloacae; planktonic, […]): 0.4

Compound: CC(=O)Oc1cc(C(F)(F)F)ccc1C(=O)O [Triflusal]
- fold induction at 50 µM (P. aeruginosa; planktonic, […], read-out: AK-based Prestwick Library Screening Results, P. aeruginosa (fold increase in extracellular AK activity)): 1.2
- fold induction at 50 µM ([1]; planktonic, […], read-out: AK-based Prestwick Library Screening Results, S. aureus (fold increase in extracellular AK activity)): 1.4
- fold induction at 50 µM (K. pneumoniae; planktonic, […], read-out: AK-based Prestwick Library Screening Results, K. pneumoniae (fold increase in extracellular AK activity)): 0.9
- fold induction at 50 µM ([2]; planktonic, […], read-out: AK-based Prestwick Library Screening Results, A. baumannii (fold increase in extracellular AK activity)): 1
- fold induction at 50 µM (E. faecium; planktonic, […], read-out: AK-based Prestwick Library Screening Results, E. faecium (fold increase in extracellular AK activity)): 1
- fold induction at 50 µM (E. coli; planktonic, […], read-out: AK-based Prestwick Library Screening Results, E. coli (fold increase in extracellular AK activity)): 1.2
- fold induction at 50 µM (E. cloacae; planktonic, […], read-out: AK-based Prestwick Library Screening Results, E. cloacae (fold increase in extracellular AK activity)): 1.3
